The target of the assay is Cathepsin D (Homo sapiens, UniProt P07339). Kind of assay: Enzyme Inhibition Measurements. As to conditions: 25 °C.

As a reminder, the IC50 is the concentration that inhibits the measured activity by half. Higher therefore signals weaker potency.

Sequence of Cathepsin D (P07339 65-162 limits assumed): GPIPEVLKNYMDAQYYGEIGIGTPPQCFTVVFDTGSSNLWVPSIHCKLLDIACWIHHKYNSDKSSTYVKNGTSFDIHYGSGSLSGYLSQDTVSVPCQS
Sequence of Cathepsin D (P07339 169-412 limits assumed): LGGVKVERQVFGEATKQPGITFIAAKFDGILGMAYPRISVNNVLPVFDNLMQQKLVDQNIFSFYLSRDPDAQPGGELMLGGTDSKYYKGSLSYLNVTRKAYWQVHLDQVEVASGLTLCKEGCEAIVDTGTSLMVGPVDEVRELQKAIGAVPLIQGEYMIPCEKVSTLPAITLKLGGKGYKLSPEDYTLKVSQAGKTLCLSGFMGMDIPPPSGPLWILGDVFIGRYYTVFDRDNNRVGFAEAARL

Regarding `CCCCNC(=O)[C@@H](NC(=O)[C@@H]1OCC[C@H]1[C@H](O)[C@H](CC(C)C)NC(=O)[C@H](CCSC)NC(=O)[C@H](CC(C)C)NC(C)=O)C(C)C` [(2S)-N-[(1S)-1-{[(1S,2S)-1-[(2R,3S)-2-{[(1S)-1-(butylcarbamoyl)-2-methylpropyl]carbamoyl}oxolan-3-yl]-1-hydroxy-4-methylpentan-2-yl]carbamoyl}-3-(methylsulfanyl)propyl]-2-acetamido-4-methylpentanamide], the IC50 was determined as 280 nM.

The values above are taken from BindingDB's records for doi:10.1021/jm050142+ (Universite De Montreal At Succursale Centre-Ville, 2005).
